One data set deals with circulating LH. Description: suppression of circulating LH concentrations, duration of bioactivity. It counts as in vivo. The note with it: dose of 50 micrograms per rat; for duration of bioactivity (LH suppression): testing as in Example 1.
The test system of data set [1] is ovulation in mature female Sprague-Dawley rats. Description: standard in vivo rat anti-ovulation test. The note with it: injected in bacteriostatic water at about noon on the day of proestrus. How it is done: (§1) The betide is assayed in vivo to determine its effectiveness to prevent ovulation in female rats. Inthis test, a specified number of mature female Sprague-Dawley rats, e.g. five to ten, each having a body weight from 225 to 250 grams, are injected with a specified microgram dosage of the betide in bacteriostatic water at about noon on the day of proestrus. Proestrus is the […]. A separate female rat group is used as a control to which the peptide is not administered. Each of the control female rats ovulates on the evening of proestrus; the number of the rats treated which ovulate is recorded.

Data set [2] can be described thus: hydrophilicity by RP-HPLC retention. It counts as physicochemical. As to conditions: for hydrophilicity compared to Acyline: RP-HPLC.
Data set [3] can be described thus: examination of injected rats for tolerance and gelling at the point of injection. Type of data set: in vivo, rat. The note with it: after injection in the anti-ovulation test. On the procedure: as §1

As for `CC(=O)Nc1ccc(C[C@H](NC(=O)[C@H](CO)NC(=O)[C@@H](Cc2cccnc2)NC(=O)[C@@H](Cc2ccc(Cl)cc2)NC(=O)C(NC(C)=O)NC(=O)c2ccc3ccccc3c2)C(=O)N[C@H](Cc2ccc(NC(C)=O)cc2)C(=O)N[C@@H](CC(C)C)C(=O)N[C@@H](CCCCNC(C)C)C(=O)N2CCC[C@H]2C(=O)N[C@H](C)C(N)=O)cc1` (single isomer, unassigned) [Betide No. 3, Ac-γ-(2-naphthoyl)amidoGly-4Cl-D-Phe-D-3Pal-Ser-Aph(acetyl)-D-Aph(acetyl)-Leu-Lys(isopropyl)-Pro-D-Ala-NH2], in the data set with circulating LH, the “duration of bioactivity (LH suppression)” value was ≥ 48 h. Moreover, the “anti-ovulatory activity: rats ovulating out of rats treated” value (“anti-ovulatory activity” below) in data set [1] (dosage 1 μg) was 2 out of 7; in data set [1] (dosage 2.5 μg) it was 0/8.

Regarding `CC(=O)Nc1ccc(C[C@H](NC(=O)[C@H](CO)NC(=O)C(NC(=O)c2ccncc2)NC(=O)[C@@H](Cc2ccc(Cl)cc2)NC(=O)[C@@H](Cc2ccc3ccccc3c2)NC(C)=O)C(=O)N[C@H](Cc2ccc(NC(C)=O)cc2)C(=O)N[C@@H](CC(C)C)C(=O)N[C@@H](CCCCNC(C)C)C(=O)N2CCC[C@H]2C(=O)N[C@H](C)C(N)=O)cc1` (single isomer, unassigned) [Betide No. 1A second isomer, Ac-β-D-2Nal-D-4Cpa-γ-(4-pyridyl)D/L-amidoGly-Ser-Aph(acetyl)-D- Aph(acetyl)-Leu-Lys(isopropyl)-Pro-D-Ala-NH2], the “hydrophilicity compared to Acyline” value in data set [2] is reported as “more hydrophilic than Acyline”. The figures for the “anti-ovulatory activity” value in data set [1] (dosage 2.5 μg) and in data set [1] (dosage 10 μg) were 2 out of 8 and 0 out of 8, respectively.

As for “Ac-D-2Nal-(4Cl)D-Phe-D-3Pal-Ser-Aph(acetyl)-D-Aph(acetyl)-Leu-D/L-Agl(acetyl-β-Ala)-Pro-D-Ala-NH2 [Betide No. 7]”, in data set [2], the “hydrophilicity compared to Acyline” value is recorded as “more hydrophilic than Acyline”. The “anti-ovulatory activity” value in data set [1] (dosage 2.5 μg) was 3 out of 9; in data set [1] (dosage 5 μg), 0 out of 11.

Turning to `CC(=O)Nc1ccc(C[C@H](NC(=O)[C@H](CO)NC(=O)C(NC(=O)c2cccnc2)NC(=O)[C@@H](Cc2ccc(Cl)cc2)NC(=O)[C@@H](Cc2ccc3ccccc3c2)NC(C)=O)C(=O)N[C@H](Cc2ccc(NC(C)=O)cc2)C(=O)N[C@@H](CC(C)C)C(=O)N[C@@H](CCCCNC(C)C)C(=O)N2CCC[C@H]2C(=O)N[C@H](C)C(N)=O)cc1` (single isomer, unassigned) [Betide No. 1, Ac-D-2Nal-(4Cl)D-Phe-γ-(3-pyridyl)amidoGly-Ser-Aph(acetyl)-D-Aph(acetyl)-Leu-Lys(isopropyl)-Pro-D-Ala-NH2], the “circulating LH concentrations relative to control levels” value with circulating LH (for 48 hours or more) is given as “less than 25 % of control levels”. In addition, in the data set on circulating LH, the “duration of bioactivity (LH suppression)” value is ≥ 48 h. Further, the “hydrophilicity compared to Acyline” value in data set [2] is “more hydrophilic”. In data set [2] (gradient 40% to 75% Buffer B over 30 minutes, Buffer A TEAP pH 7.3, Buffer B 60% CH3CN and 40% Buffer A), the “RP-HPLC retention (hydrophilicity)” value stood at 23.5 min. Besides, in data set [3], the “gelling at the point of injection” value is given as “no significant gelling” and the “tolerance in treated rats” value is listed as “very well tolerated”.

On to “Ac-D-2Nal-(4Cl)D-Phe-D-3Pal-Ser-Aph(acetyl)-D-Aph(acetyl)-Leu-Lys(isopropyl)-Pro-D/L-Agl-NH2 [Betide No. 8A]”, for which, in data set [2], the “hydrophilicity compared to Acyline” value is reported as “more hydrophilic than Acyline”. For the same compound, the “anti-ovulatory activity” value in data set [1] (dosage 2.5 μg) is given as 0 out of 8.

As for `CC(=O)Nc1ccc(C[C@H](NC(=O)[C@H](CO)NC(=O)C(NC(=O)[C@@H](Cc2ccc(Cl)cc2)NC(=O)[C@@H](Cc2ccc3ccccc3c2)NC(C)=O)N(C)C(=O)c2cccnc2)C(=O)N[C@H](Cc2ccc(NC(C)=O)cc2)C(=O)N[C@@H](CC(C)C)C(=O)N[C@@H](CCCCNC(C)C)C(=O)N2CCC[C@H]2C(=O)N[C@H](C)C(N)=O)cc1` (single isomer, unassigned) [Betide No. 1B first isomer, Ac-β-D-2Nal-D-Cpa-γ-(3-pyridyl)methylD/L-amidoGly-Ser-Aph(acetyl)-D-Aph(acetyl)-Leu-Lys(isopropyl)-Pro-D-Ala-NH2], in data set [2], the “hydrophilicity compared to Acyline” value is on record as “more hydrophilic than Acyline”. Further, the “anti-ovulatory activity” value in data set [1] (dosage 2.5 μg) is given as “only the second isomer was bioactive”.

The values are drawn from patent US5807983A, “GNRH antagonist betides” (The Salk Institute for Biological Studies, priority 1996, dated 1998).
